Molecules are shown by their SMILES. Several values for one entry are separate records, joined by “and”; a condition that tells them apart may be missing. Equal entries are not always repeated.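 Assay format: 96-well plates, 48-hour exposure. At the GI50, growth is halved. The concentration for full growth arrest is given as TGI.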 Activity calls are given as the source filed them. Rule as the data show it: active = GI50 below about 0.43 µM; inactive = the rest. A value given as a limit tells only on which side of the number the result lay.

Broadly, the TGI is the concentration giving total growth inhibition. A low value points to greater sensitivity of the cells. One may read the GI50 as the concentration giving 50% growth inhibition.

Test in all cases: DTP human tumour cell line panel, 48 h
Assay [1] relates to KM20L2 colon.
For assay [2], the system named is XF 498 CNS.
The subject of assay [3] is DMS 114 small cell lung.
Assay [4] has as its system HOP-18 NSCLC.
Assay [5] relates to RXF-631 renal.
Assay [6] deals with NCI/ADR-RES ovarian.
Assay [7] has as its system MDA-MB-231 breast.
Assay [8] concerns MCF7 breast.
The test system of assay [9] is HS 578T breast.

On to `COC(=O)C1CC(C(=O)OC)c2nc3cc(C)ccc3nc21` (stereo unspecified), for which the total growth inhibition concentration (TGI) in [1], in [2], in [3], in assay [4] and in assay [5] was above 100 µM in each case.
On to `COC(=O)C(CCS(=O)(=O)CC(=O)C(=O)Nc1cccc(C(C)=O)c1)C(=O)OC`, for which the TGI is above 100 µM in [1]; above 100 µM in [2]; above 55.2 µM in [3]; above 100 µM in [4]; above 100 µM in assay [5].
For `[Cl][Bi]([O]c1ccccn1)[O]c1ccccn1`, the GI50 is above 100 µM in [1], above 100 µM in assay [2] and 57 µM in assay [3]. Also, the TGI in assay [1], in [2] and in [3] was above 100 µM throughout.
For `CC(=O)OC1C(=O)C(O)C(C)OC1O[C@@H]1C[C@@]2(C)[C@@H]3CC=C4[C@@H](C[C@H](O)C(=O)C4(C)C)[C@]3(C)C(=O)C[C@]2(C)[C@H]1[C@@](C)(O)C(=O)/C=C/C(C)(C)O` (stereo partly specified), the concentration for total growth inhibition (TGI) in assay [1] worked out at 8.3 µM; in assay [2], 0.64 µM; in assay [4] it was 4.9 µM; in assay [5], 7.85 µM.
Regarding `C=C1[C@@H](C)[C@H]2[C@H](Cc3ccccc3)NC(=O)[C@]23OC(=O)/C=C/[C@H](O)CCC[C@@H](C)C/C=C/[C@H]3[C@@H]1O`, the TGI was above 100 µM in assay [1]; 91.1 µM in [6]; above 100 µM in assay [7]; 8.97 µM in [2]; above 100 µM in [3]; 3.03 µM in [4]. The compound further registered a TGI in assay [8] above 100 µM.
As to `Clc1ccc(Cl)c2[s+]snc12`, the TGI is above 100 µM in assay [1]; above 100 µM in assay [2]; above 66.8 µM in assay [3]; above 100 µM in assay [4]; above 100 µM in assay [5].
As for `CCCN(CCCCC(NC(C)=O)C(=O)NCc1ccccc1)C(=O)NCCCl` (stereo unspecified), the total growth inhibition concentration (TGI) in assay [1], in assay [2], in assay [3], in [4] and in assay [5] was above 100 µM throughout.
Take `CSc1nc(NC2OCC(OC(C)=O)C(OC(C)=O)C2OC(C)=O)c2c(OC(C)=O)c(C)c(=O)oc2n1` (stereo unspecified): the TGI in assay [1], in [2], in [3], in assay [4] and in assay [5] was above 100 µM each time.
For `CC(=O)Nc1ccc(C(=O)N2N=C(C)/C(=C/c3ccccc3O)C2=O)cc1`, the concentration for total growth inhibition (TGI) in assay [2], in [3] and in [4] was above 100 µM each time.
As to `Cc1c(/C=N/NS(=O)(=O)c2ccccc2)no[n+]1[O-]`, the TGI in [1], in assay [3] and in assay [4] was above 100 µM in each case.
Consider `Cc1cccc(-c2nc3c(C(=O)NCCN(C)C)cccc3[nH]2)c1`, for which the TGI in assay [3] is 2.51 µM; in assay [4], 4.85 µM; in assay [5] it was 2.16 µM.
As to `O=C1c2cccc3cc([N+](=O)[O-])cc(c23)C(=O)N1CCNCCNCCNCCN1C(=O)c2cccc3cc([N+](=O)[O-])cc(c23)C1=O`, the total growth inhibition concentration (TGI) in assay [1] is 0.576 µM; in assay [3], 0.41 µM and 0.264 µM.
Consider `CC(C)N(C(=O)C12C3C4C5(C#N)C3C1(I)C5C42I)C(C)C` (stereo unspecified), for which the concentration for total growth inhibition (TGI) in assay [1] was above 100 µM; in [2] it was above 100 µM; in assay [3], above 59.7 µM; in assay [4] it was above 100 µM.
For `O=S(=O)([O-])c1cccc2cccc(N=Cc3ccccc3[O-])c12.O=S(=O)([O-])c1cccc2cccc(N=Cc3ccccc3[O-])c12.[O]=[U]=[O]`, the GI50 is above 100 µM in assay [1], above 100 µM in assay [2], 54 µM in assay [3] and above 100 µM in assay [4]. For the same compound, the TGI in [1], in assay [2], in assay [3] and in assay [4] was above 100 µM in each case.
As for `N#CC(C(=O)/C(=N/N)C(C#N)c1ccc(Cl)cc1)c1ccc(Cl)cc1` (stereo unspecified), the TGI in [1], in [2], in [3], in assay [4] and in assay [5] was above 100 µM in each case.
For `O=C1C(Cl)=C(Cl)C(=O)N1C1C2CC3CC(C2)CC1C3` (stereo unspecified), the TGI in assay [1], in assay [2], in assay [3] and in assay [4] was above 100 µM throughout.
On to `C/C(O)=C(\N=O)C(=O)NCCc1ccccc1`, for which the TGI in assay [1] was above 100 µM; in assay [2] it was above 31.6 µM; in [3], above 60 µM; in [4], above 100 µM.
Consider `CCOc1ccc(N=Cc2cccc3cccnc23)cc1`, for which the TGI in assay [1], in assay [2], in assay [3], in assay [4] and in assay [5] was above 100 µM in each case.
As for `CC(CN(CP(=O)([O-])[O-])CP(=O)([O-])[O-])N(CP(=O)([O-])[O-])CP(=O)([O-])[O-].N.N.[Pt+2]` (stereo unspecified), the GI50 in [1] is above 100 µM; in assay [4], 26.1 µM. For the same compound, the TGI in assay [1] and in [4] was above 100 µM in each case.
As to `CC1OC(n2ncc(=O)[nH]c2=O)C=CC1=O` (stereo unspecified), the GI50 is > 100 µM and 40.7 µM in assay [1]; 54.8 µM and 22.9 µM in [2]. The TGI in [1] was above 100 µM; in [2], above 100 µM; in assay [5], 32.5 µM and 43.5 µM.
On to `COc1ccc(C=C2C(=O)OC(C)(C)OC2=O)cc1OC`, for which the TGI in assay [1], in assay [2] and in [3] was above 100 µM in each case.
Take `O=C1NC(=S)NC(=O)C1=Cc1cc2c(cc1[N+](=O)[O-])OCO2`: the total growth inhibition concentration (TGI) is above 100 µM in [1], 87.3 µM in [3], above 100 µM in assay [4] and above 100 µM in assay [5].
As to `[N-]=[N+]=NC(c1cn(C2CC(O)C(CO)O2)c(=O)[nH]c1=O)C(Br)I` (stereo unspecified), the TGI in assay [1] and in assay [3] was above 100 µM throughout.
For the compound `O=C(/C=C/c1ccc(OCC(=O)N2CCN(c3ccccc3)CC2)cc1)c1ccc(Cl)cc1`, the TGI was 62.3 µM in assay [9]; above 100 µM in assay [1]; above 100 µM in assay [6]; above 86.3 µM in [7]; above 100 µM in assay [3]; above 100 µM in assay [4]. The TGI in [5] and in assay [8] was above 100 µM throughout.
For the compound `O=C1C=C[C@@]23CC1C(O)C[C@H]2C=Cc1ccccc13` (stereo partly specified), the TGI in assay [1], in [2] and in [3] was above 100 µM throughout.
Regarding `Cc1cccc(C(C)(C)C)c1NC(=O)C(=O)C(C(=O)/C=C\c1ccccc1)C1OC(=O)c2ccccc21` (stereo unspecified), the TGI in [1], in [2], in assay [3], in assay [4] and in assay [5] was above 100 µM in each case.
Take `O=C(O)CNc1c2ccccc2nc2ccccc12`: the total growth inhibition concentration (TGI) in assay [1], in [2], in [3] and in assay [5] was above 100 µM each time.
With `COc1c(O)c2c(c3cc(C(=O)N4CCc5c4c(O)c(OC)c4[nH]c(C(=O)N6CC7CC78C6=CC(=O)c6[nH]cc(C)c68)cc54)[nH]c13)CCN2C(N)=O` (stereo unspecified), the TGI in [9] is 3.41 µM; in assay [1], 0.0181 µM; in assay [7] it was above 100 µM; in assay [3], 15.1 nM and 0.0121 µg/mL; in assay [4] it was 0.0856 µM; in [8], 0.397 µM. Besides, the result in assay [1] and in [4] was inactive. The GI50 in assay [3] was 2.76 ng/mL; in [4] it was 0.0126 µM.
Take `CCCCCCCCCCC/C(=N/O)c1ccc(O)c2ncccc12`: the TGI is 17.6 µM in assay [1], 6.79 µM in assay [3] and 9.59 µM in assay [4].
As to `Cc1ccc(NC(=O)CC2C(=O)Nc3ccccc3S2=O)cc1C` (stereo unspecified), the TGI in assay [1], in assay [2] and in assay [3] was above 100 µM each time.
Consider `O=c1n(C2CCCCC2)c(=C(Cl)Cl)c(=C(Cl)Cl)n1C1CCCCC1`, for which the TGI in assay [1], in assay [2], in assay [3] and in assay [4] was above 100 µM each time.
In the case of `CCN1C2=NC(=O)N(C)C(=O)C2(Cl)C(C(SC)S(=O)(=O)c2ccc(C)cc2)c2ccccc21` (stereo unspecified), the concentration for total growth inhibition (TGI) in assay [1] is above 100 µM; in assay [2], above 100 µM; in assay [3], above 100 µM; in [5], 51.2 µM.
For the compound `CN(C)CCCn1c2c(c3cnccc3c1=O)C(=O)c1ccccc1-2`, the GI50 in [9] was 1.04 µM; in [6] it was 0.483 µM; in [7], 0.623 µM; in assay [8] it was 0.244 µM. Moreover, the TGI in [9] is 7.53 µM; in assay [6] it was 10.8 µM; in assay [7] it was 3.1 µM; in [8], 1.76 µM.
For the compound `CCCC1c2c(ccc3ccccc23)Oc2ccc3ccccc3c21`, the total growth inhibition concentration (TGI) in assay [9] is above 100 µM; in [6], above 100 µM; in [7] it was above 100 µM; in assay [8], 35.6 µM.
On to `CCOC(=O)CC(=O)Sc1ccccc1`, for which the TGI in [1] was 47.5 µM; in [2], 93.4 µM; in [3], 32 µM; in assay [4], above 100 µM.
As to `CCCC[C@H]1C(=O)O[C@H](C)[C@H](NC(=O)c2cccc(NC=O)c2O)C(=O)O[C@@H](C)[C@@H]1OC(=O)CC(C)C`, the TGI in assay [9] was 37.7 µM; in assay [6] it was 65.6 µM; in [7], 32.8 µM; in assay [8], 25.8 µM.
As to `Cc1ccccc1-c1c(N)nc(NC#N)nc1C(=O)Nc1ccccc1`, the TGI in assay [1], in assay [3], in assay [4] and in assay [5] was above 100 µM in each case.
For `O=C(O)c1ccc2c(c1)Cc1cc([N+](=O)[O-])ccc1-2`, the TGI in [9], in [6], in assay [7] and in assay [8] was above 100 µM in each case.
For `COC(=O)C1=C(C)N(NC(N)=O)C2(N)N(NC(N)=O)C(C)=C(C(=O)OC)C12C(=O)OC` (stereo unspecified), the concentration for total growth inhibition (TGI) in [1], in assay [2], in [3], in [4] and in assay [5] was above 100 µM each time.
With `COc1ccc(/C=N/N=C(\N)NO)cc1OC`, the results for the total growth inhibition concentration (TGI) in [1], in [2] and in assay [3] were above 100 µM, above 100 µM and 92.5 µM, respectively.
In the case of `OCCCCC#Cc1ccccc1C#Cc1ccccc1`, the GI50 in assay [9] was 15.6 µM; in assay [6] it was 17 µM; in assay [7], 4.29 µM; in assay [8] it was 21 µM. Also, the TGI was 39.6 µM in [9], 47.3 µM in assay [6], 14.1 µM in assay [7] and 48.1 µM in [8].
Consider `Cc1ccc2c(c1)nc(C(=O)c1ccco1)c(C(F)(F)F)[n+]2[O-]`, for which the GI50 is 2.33 µM in assay [9], 57 µM in assay [6], above 100 µM in [7] and above 100 µM in assay [8]. Further, the TGI was 5.76 µM in [9], above 100 µM in assay [6], above 100 µM in assay [7] and above 100 µM in [8].
For the compound `CCCCCCCCCCCCCCCCCC(=O)OCC(CN(C)CCN(C)C)OC(=O)CCCCCCCCCCCCCCCCC` (stereo unspecified), the TGI in assay [1] was above 100 µM; in [3], above 100 µM; in [4] it was 89 µM; in assay [5], above 100 µM.

The values above are taken from PubChem BioAssay (NCI).
